Measured values as given in patent US20110236318A1, “ANIMAL MODEL OF AN EJACULATION-LIKE REFLEX” (ASTELLAS PHARMA INC., priority 2010, published 2011).

Tests used:
[1] = tested on: ejaculatory latency; conditions: male rat copulatory behavior study, reported previously; cited from earlier work
[2] = tested on: ejaculation-like reflex; test: Ejaculation-like reflex induced by urethral occlusion by a bend at the penile base; assay type: in vivo, rat; conditions: anesthetized spinal cord-transected male SD rats; 1.0 mg/kg iv; occlusion 10 minutes after dosing; vs pre values; N=3
Description: Male SD rats of 300-450 g body weight (Charles River) were used under urethane anesthesia (1.2 g/kg, s.c., ACROS Organic). The skin and muscle on the back were incised to expose the 7th-9th thoracic vertebra. The vertebra on the back side was removed to expose the spinal cord, which was cut at the 8th-10th thoracic vertebra. Gelfoam (Pfizer) was imbedded in the cut site and the muscle and skin were sutured.
The neck skin and muscle were incised, and catheters (Intramedic polyethylene tube No. 50; Becton Dickinson) were inserted into the carotid and jugular vein for measuring the blood pressure and administering a drug, respectively. The other end of the carotid catheter was connected to a pressure transducer (CDXIII Transducer, Argon Medical Devices).
The lower abdominal region was subjected to median incision to expose the bladder. […] The pressure transducers connecting to the catheter inserted into the carotid […] and the catheter inserted into the proximal urethra were connected to a distortion pressure amplifier (Transbridge 4M, World Precision Instruments) installed in a polygraph system (RPS321RM, GRASS Technologies), and the blood pressure and urethral pressure were measured by a Power Labosystem (ML880 and LabChart version 6, AD Instruments) with a lapse of time. […]

CCCN(CCC)C1CCc2cccc(O)c2C1 (stereo not drawn) [8-OH-DPAT]
ejaculatory latency [1]: shorten the ejaculatory latency
latency from the start of occlusion until the first ejaculation-like reflex [2]: shortened the latency of the first ejaculation-like reflex
threshold urethra pressure immediately before the first ejaculation-like reflex [2]: reduced the threshold urethra pressure
